Measured values from the supplement of paper PMC8967900.

Legend:
Experiment in all cases: selective drug sensitivity score (sDSS, relative to normal bone marrow) (sDSS (score)); higher = more potent and effective on the cell line relative to normal bone marrow cells
Conditions in all cases: 72 h
MHH-CALL-4 = tested on: MHH-CALL-4
COG-LL-332h = tested on: COG-LL-332h
ALL-PO = tested on: ALL-PO
NALL-1 = tested on: NALL-1
MHH-CALL-3 = tested on: MHH-CALL-3
MOLT-14 = tested on: MOLT-14
KARPAS-45 = tested on: KARPAS-45
HPB-ALL = tested on: HPB-ALL
HAL-01 = tested on: HAL-01
COG-LL-394h = tested on: COG-LL-394h
TMD5 = tested on: TMD5
MOLT-16 = tested on: MOLT-16
P30-OHKUBO = tested on: P30-OHKUBO
LC4-1 = tested on: LC4-1
SUP-B15 = tested on: SUP-B15
MOLT-4 = tested on: MOLT-4
COG-LL-317 = tested on: COG-LL-317
KASUMI-10 = tested on: KASUMI-10
KOPN-8 = tested on: KOPN-8
NALM-6 = tested on: NALM-6
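Note: ALL cell lines in 384-well plates, five doses spanning 10,000-fold, each plate scaled between vehicle and 100 µmol/L benzalkonium chloride controls, sDSS an adapted area-under-curve metric.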

Row | SMILES | selective drug sensitivity score (MHH-CALL-4) | selective drug sensitivity score (COG-LL-332h) | selective drug sensitivity score (ALL-PO) | selective drug sensitivity score (NALL-1) | selective drug sensitivity score (MHH-CALL-3) | selective drug sensitivity score (MOLT-14) | selective drug sensitivity score (KARPAS-45) | selective drug sensitivity score (HPB-ALL) | selective drug sensitivity score (HAL-01) | selective drug sensitivity score (COG-LL-394h) | selective drug sensitivity score (TMD5) | selective drug sensitivity score (MOLT-16) | selective drug sensitivity score (P30-OHKUBO) | selective drug sensitivity score (LC4-1) | selective drug sensitivity score (SUP-B15) | selective drug sensitivity score (MOLT-4) | selective drug sensitivity score (COG-LL-317) | selective drug sensitivity score (KASUMI-10) | selective drug sensitivity score (KOPN-8) | selective drug sensitivity score (NALM-6)
1 | CC[C@H](CO)Nc1nc(NCc2ccccc2)c2ncn(C(C)C)c2n1 [Seliciclib] (top concentration 10000 nM) | 0.16 | 2.16 | -1.04 | -0.74 | -1.04 | -1.04 | 1.96 | -0.64 | -0.34 | -1.04 | -1.04 | 0.26 | -0.14 | 1.06 | 3.26 | -1.04 | 3.56 | 0.86 | 4.26 | -1.04
2 | CN1CCN(C(=O)c2ccc3cc(CCNc4ncnc5ccc(C#N)cc45)ccc3c2)CC1 [Senexin_B] (top concentration 1000 nM) | -0.6 | 0.6 | -0.6 | -0.6 | -0.1 | 2.1 | 1.4 | -0.6 | -0.6 | 1 | -0.6 | 1.8 | 0.4 | -0.6 | 2.8 | -0.6 | 0.5 | 4.5 | -0.6 | 0.9
3 | Clc1ccccc1C(c1ccccc1)(c1ccccc1)n1cccn1 [TRAM-34] (top concentration 1000 nM) | -0.08 | -0.08 | -0.08 | -0.08 | -0.08 | -0.08 | -0.08 | -0.08 | 2.72 | -0.08 | -0.08 | -0.08 | 1.12 | -0.08 | -0.08 | -0.08 | -0.08 | -0.08 | -0.08 | -0.08
4 | C=CC[C@@H]1/C=C(\C)C[C@H](C)C[C@H](OC)[C@H]2O[C@@](O)(C(=O)C(=O)N3CCCC[C@H]3C(=O)O[C@H](/C(C)=C/[C@@H]3CC[C@@H](O)[C@H](OC)C3)[C@H](C)[C@@H](O)CC1=O)[C@H](C)C[C@@H]2OC [Tacrolimus] (top concentration 10000 nM) | -0.12 | 0.18 | 2.08 | 0.48 | 33.9 | 1.38 | 2.18 | 0.28 | 8.58 | 3.08 | 13.5 | 12.1 | 16.1 | 21.1 | 18.3 | 1.38 | 0.68 | -0.72 | 4.68 | 0.98
5 | CCN(c1cc(-c2ccc(CN3CCOCC3)cc2)cc(C(=O)NCc2c(C)cc(C)[nH]c2=O)c1C)C1CCOCC1 [Tazemetostat] (top concentration 10000 nM) | -0.08 | -0.08 | 0.32 | 8.22 | -0.08 | 0.32 | 1.32 | -0.08 | 3.82 | -0.08 | -0.08 | -0.08 | 0.42 | -0.08 | -0.08 | -0.08 | -0.08 | -0.08 | -0.08 | -0.08
6 | COc1cc2c(Nc3ccc(Cl)c(Cl)c3F)ncnc2cc1OC[C@@H]1C[C@@H]2CN(C)C[C@@H]2C1 [Tesevatinib] (top concentration 1000 nM) | 2.34 | -0.86 | 2.34 | -0.06 | 3.64 | -0.56 | 0.74 | 0.64 | 2.44 | -0.36 | 3.24 | 1.74 | 0.94 | -1.16 | -1.36 | -0.86 | 0.04 | -1.06 | -0.86 | -0.16
7 | O=C1CCC(N2C(=O)c3ccccc3C2=O)C(=O)N1 (stereo not given) [Thalidomide] (top concentration 10000 nM) | -0.14 | -0.14 | -0.14 | -0.14 | -0.14 | -0.14 | -0.14 | -0.14 | 0.36 | -0.14 | -0.14 | -0.14 | -0.14 | -0.14 | -0.14 | -0.14 | -0.14 | -0.14 | -0.14 | -0.14
8 | O=C1NC(=O)[C@@H](c2cn3c4c(cccc24)CCC3)[C@@H]1c1c[nH]c2ccccc12 [Tivantinib] (top concentration 1000 nM) | 4.88 | 3.48 | 2.08 | 4.78 | 0.78 | 3.18 | 4.08 | 2.88 | 5.78 | -0.42 | 5.38 | 3.48 | 6.58 | 4.08 | 2.88 | 3.28 | 3.68 | 1.98 | 3.08 | 5.08
9 | C[C@@H]1CCN(C(=O)CC#N)C[C@@H]1N(C)c1ncnc2[nH]ccc12 [Tofacitinib] (top concentration 5000 nM) | -4.96 | -7.86 | -7.86 | -7.86 | -7.86 | -7.66 | -7.86 | -7.86 | -7.86 | -7.86 | -7.86 | -7.86 | -6.66 | -7.86 | -7.86 | -7.86 | -7.86 | -7.86 | -7.66 | -7.86
